biological target: T1, human FAAH (Homo sapiens, UniProt O00519); assay: Human FAAH biochemical inhibition assay (AMC arachidonoyl amide fluorescence); conditions: class given in each Example, read-out: Activity (Ki, inhibition of human FAAH)
T1 construct: host or cells: COS-7 cells, transient transfection (FuGENE 6); 13,000 g membrane fraction solubilised in 1% Triton X-100
T1 sequence (O00519 1-579): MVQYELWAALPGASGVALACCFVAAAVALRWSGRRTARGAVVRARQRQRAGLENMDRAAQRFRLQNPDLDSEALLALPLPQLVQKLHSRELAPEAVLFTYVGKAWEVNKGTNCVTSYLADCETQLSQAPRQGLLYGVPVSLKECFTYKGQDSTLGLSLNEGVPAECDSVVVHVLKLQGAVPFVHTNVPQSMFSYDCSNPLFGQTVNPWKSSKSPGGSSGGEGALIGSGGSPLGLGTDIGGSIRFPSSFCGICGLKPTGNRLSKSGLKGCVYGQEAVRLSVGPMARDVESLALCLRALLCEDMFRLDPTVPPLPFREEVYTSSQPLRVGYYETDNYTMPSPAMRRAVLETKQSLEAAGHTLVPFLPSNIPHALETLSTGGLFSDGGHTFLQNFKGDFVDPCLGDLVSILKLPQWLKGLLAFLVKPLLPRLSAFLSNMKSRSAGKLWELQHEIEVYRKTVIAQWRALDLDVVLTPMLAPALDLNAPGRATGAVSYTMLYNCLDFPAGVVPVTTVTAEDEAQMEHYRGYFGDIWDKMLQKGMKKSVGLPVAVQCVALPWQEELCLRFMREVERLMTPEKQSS
Method in brief: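 Human FAAH from solubilized membranes of transiently transfected COS-7 cells, 0.1 mg/mL in 50 mM Hepes pH 7.5, 1 mM EDTA, 0.2% Triton X-100, preincubated 30 min at room temperature with 3-fold serially diluted inhibitor. Hydrolysis of AMC arachidonoyl amide read by fluorescence (ex 355/em 460 nm). Data fitted to single-site competitive inhibition with Km fixed at 9 μM.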

| Ki [nM] | Structure (SMILES) |
| --- | --- |
| ≤ 10 | CN(CCc1ccc(B(O)O)cc1)C(=O)OC(C)(C)C [Compound 234] |
| ≤ 10 | CN(CCCc1ccc(B(O)O)cc1)C(=O)OC(C)(C)C [Compound 235] |
| ≤ 10 | CN(CCCc1ccc(B(O)O)cc1)S(=O)(=O)c1ccccc1 [Compound 238] |
| ≤ 10 | OB(O)c1ccc2oc(CCc3ccccc3)nc2c1 [Compound 242] |
| ≤ 10 | OB(O)c1ccc2nc(CCc3ccccc3)oc2c1 [Compound 243] |
| ≤ 10 | CCCc1nc2ccc(B(O)O)cc2o1 [Compound 244] |
| 10 to 100 | O=C(CCc1nc2ccc(B(O)O)cc2o1)N1CCCCC1 [Compound 247] |
| 10 to 100 | O=C1CC(c2nc3ccc(B(O)O)cc3o2)CN1Cc1ccccc1 (centres unmarked) [Compound 249] |
| > 1000 | OB1c2sccc2C=NN1Cc1ccccc1 [Compound 256] |
| > 1000 | OB1NN=Cc2cc(OCc3ccccc3)ccc21 [Compound 258] |
| > 1000 | OB(O)c1ccccc1-c1nc2ncccc2o1 [Compound 259] |
| > 1000 | CCCc1nnc(-c2cc(OC)ccc2B(O)O)o1 [Compound 260] |
| > 1000 | CCCc1nnc(-c2cc(F)ccc2B(O)O)o1 [Compound 261] |
| > 1000 | O=C1CCCN1CCc1nnc(-c2ccccc2B(O)O)o1 [Compound 263] |
| > 1000 | OB(O)c1ccccc1-c1nnc(-c2ccco2)o1 [Compound 264] |
| 100 to 1000 | Cc1nc(-c2nnc(-c3cc(OCCc4ccccc4)ccc3B(O)O)o2)cs1 [Compound 269] |
| 10 to 100 | CCCCOc1ccc(B(O)O)c(-c2nnc(CCC)o2)c1 [Compound 271] |
| 10 to 100 | CCCCOc1ccc(B(O)O)c(-c2nnc(C)o2)c1 [Compound 272] |
| ≤ 10 | OB(O)c1ccc2nc(CCc3ccccc3)sc2c1 [Compound 278] |
| 10 to 100 | CC(C)c1ccc(CN2CCC(c3ccc(B(O)O)cc3)CC2)cc1 [Compound 280] |

| Ki [nM] | Structure (SMILES) |
| --- | --- |
| > 1000 | CN(C)c1nnc(-c2ccccc2B(O)O)o1 [Compound 282] |
| > 1000 | OB(O)c1ccccc1-c1nnc(CCC(F)(F)F)o1 [Compound 285] |
| > 1000 | O=C(/C=C/c1cc(OCCc2ccccc2)ccc1B(O)O)NCc1ccco1 [Compound 288] |
| ≤ 10 | OB(O)c1ccc2oc(CCc3ccccc3)cc2c1 [Compound 291] |
| ≤ 10 | OB(O)c1ccc2cc(CCc3ccccc3)oc2c1 [Compound 293] |
| ≤ 10 | OB(O)c1ccc(Oc2cncc(F)c2)cc1 [Compound 297] |
| ≤ 10 | CC(C)(C)OC(=O)N1CCC(Cc2nc3ccc(B(O)O)cc3o2)CC1 [Compound 299] |
| 10 to 100 | OB(O)c1ccc2nc(CC3CCN(Cc4ccccc4)CC3)oc2c1 [Compound 302] |
| ≤ 10 | CCCCCN1C(=O)c2ccc(B(O)O)cc2C1=O [Compound 307] |
| ≤ 10 | O=C1c2ccc(B(O)O)cc2C(=O)N1Cc1ccccc1 [Compound 308] |
| ≤ 10 | O=C1c2ccc(B(O)O)cc2C(=O)N1CCc1ccccc1 [Compound 309] |
| ≤ 10 | CN(CCc1ccc(B(O)O)c(F)c1)S(=O)(=O)c1ccccc1 [Compound 312] |
| ≤ 10 | OB(O)c1ccc2c(cnn2Cc2ccccc2)c1 [Compound 316] |
| 100 to 1000 | O=C(CCc1ccc(B(O)O)cc1)NCc1ccccc1 [Compound 324] |
| 100 to 1000 | OB(O)c1ccc(COc2ccc(B(O)O)cc2)cc1 [Compound 325] |
| ≤ 10 | OB(O)c1ccc(COc2cccc(B(O)O)c2)cc1 [Compound 326] |
| 100 to 1000 | O=C(CCCC1CCN(Cc2ccc(B(O)O)cc2)CC1)c1ncco1 [Compound 329] |
| ≤ 10 | OB(O)c1ccc(-c2cn(Cc3ccccc3)nn2)cc1 [Example 117] |
| 10 to 100 | OB(O)c1ccc(Cn2cc(-c3ccccc3)nn2)cc1 [Example 122] |

Continued, compound first:

| Structure (SMILES) | Ki [nM] |
| --- | --- |
| CC(C)(C)OC(=O)N1CCC(c2ccc(B(O)O)cc2)CC1 [Compound 233] | ≤ 10 |
| O=S(=O)(c1ccccc1)N1CCC(c2ccc(B(O)O)cc2)CC1 [Compound 236] | 10 to 100 |
| CN(CCc1ccc(B(O)O)cc1)S(=O)(=O)c1ccccc1 [Compound 237] | ≤ 10 |
| O=C(CCc1nnc(-c2ccc(B(O)O)cc2)o1)N1CCCCC1 [Compound 239] | 10 to 100 |
| OB(O)c1ccc2nc(Cc3ccccc3)oc2c1 [Compound 241] | ≤ 10 |
| CCCCCc1nc2ccc(B(O)O)cc2o1 [Compound 245] | ≤ 10 |
| OB(O)c1ccc2nc(CCCC(F)(F)F)oc2c1 [Compound 246] | ≤ 10 |
| O=C1CC(c2nc3ccc(B(O)O)cc3o2)CN1c1ccccc1 (centres unmarked) [Compound 248] | 10 to 100 |
| OB(O)c1cc2oc(CCc3ccccc3)nc2cc1F [Compound 253] | ≤ 10 |
| OB1c2cc3c(cc2C=NN1Cc1ccccc1)OCO3 [Compound 254] | > 1000 |
| COc1ccc2c(c1)B(O)N(Cc1ccccc1)N=C2 [Compound 255] | > 1000 |
| OB1c2cscc2C=NN1Cc1ccccc1 [Compound 257] | > 1000 |
| CCCc1nnc(-c2c(F)cccc2B(O)O)o1 [Compound 262] | > 1000 |
| OB(O)c1ccccc1-c1nnc(CCc2ccccc2)o1 [Compound 265] | > 1000 |
| CCCc1nnc(-c2ccccc2B(O)O)s1 [Compound 266] | > 1000 |
| CCCc1nnc(-c2cc(OCCc3ccccc3)ccc2B(O)O)s1 [Compound 267] | ≤ 10 |
| Cn1cncc1-c1nnc(-c2cc(OCCc3ccccc3)ccc2B(O)O)o1 [Compound 268] | 10 to 100 |
| CCCc1noc(-c2ccc(B(O)O)cc2)n1 [Compound 272] | ≤ 10 |
| CCCc1noc(-c2cc(OCCc3ccccc3)ccc2B(O)O)n1 [Compound 273] | 10 to 100 |
| CCCc1cnc(-c2cc(OCCc3ccccc3)ccc2B(O)O)s1 [Compound 276] | 10 to 100 |
| CCCCOc1ccc2c(c1)C=NOB2O [Compound 277] | 100 to 1000 |
| OB(O)c1ccc(C2CCN(Cc3ccccc3)CC2)cc1 [Compound 279] | 100 to 1000 |

| Structure (SMILES) | Ki [nM] |
| --- | --- |
| CCCCCc1nnc(-c2ccccc2B(O)O)o1 [Compound 281] | > 1000 |
| CC(C)c1nnc(-c2ccccc2B(O)O)o1 [Compound 283] | > 1000 |
| CC(C)Cc1nnc(-c2ccccc2B(O)O)o1 [Compound 284] | > 1000 |
| CCOc1nnc(-c2ccccc2B(O)O)o1 [Compound 286] | > 1000 |
| O=C(/C=C/c1cc(OCCc2ccccc2)ccc1B(O)O)NCc1cccnc1 [Compound 287] | > 1000 |
| CC(C)c1cccc(-c2ccc(B(O)O)c(F)c2)c1 [Compound 289] | ≤ 10 |
| CCCc1nnc(-c2cc(Oc3cccnc3)ccc2B(O)O)o1 [Compound 296] | 10 to 100 |
| OB(O)c1ccc(Oc2ccc(F)nc2)cc1F [Compound 298] | ≤ 10 |
| CC(C)c1ccc(CN2CCC(Cc3nc4ccc(B(O)O)cc4o3)CC2)cc1 [Compound 301] | 10 to 100 |
| CCCN1CCC(Cc2nc3ccc(B(O)O)cc3o2)CC1 [Compound 303] | 100 to 1000 |
| CC(C)CN1CCC(Cc2nc3ccc(B(O)O)cc3o2)CC1 [Compound 304] | > 1000 |
| O=S(=O)(c1ccccc1)N1CCC(Cc2nc3ccc(B(O)O)cc3o2)CC1 [Compound 305] | 10 to 100 |
| O=C(CCc1ccccc1)N1CCC(Cc2nc3ccc(B(O)O)cc3o2)CC1 [Compound 306] | ≤ 10 |
| CN(CCc1ccc(B(O)O)c(F)c1)C(=O)OC(C)(C)C [Compound 311] | ≤ 10 |
| OB(O)c1ccc2cn(CCc3ccccc3)nc2c1 [Compound 314] | ≤ 10 |
| OB(O)c1ccc2nn(CCc3ccccc3)cc2c1 [Compound 315] | ≤ 10 |
| OB(O)c1ccc2nc(-c3ccccc3)c(Br)n2c1 [Compound 317] | ≤ 10 |
| CC(C)(C)OC(=O)N1CCN(c2ccc(B(O)O)cc2)CC1 [Compound 318] | 10 to 100 |
| O=C(c1ccccc1)c1ccc2cc(B(O)O)ccc2n1 [Compound 319] | ≤ 10 |
| O=C(CCB(O)O)NCCc1ccccc1 [Compound 321] | 100 to 1000 |
| O=C(CCB(O)O)N1CCN(C(=O)OCc2ccccc2)CC1 [Compound 322] | 10 to 100 |
| CC(C)(C)OC(=O)N1CCN(C(=O)CCB(O)O)CC1 [Compound 323] | 100 to 1000 |
